Measurements reported in patent US10377718B2, “Apelin receptor (APJ) agonists and uses thereof” (Research Triangle Institute, priority 2014, dated 2019).

Target: T1, apelin receptor (APJ) (Homo sapiens, UniProt P35414)
T1 sequence (P35414 1-380): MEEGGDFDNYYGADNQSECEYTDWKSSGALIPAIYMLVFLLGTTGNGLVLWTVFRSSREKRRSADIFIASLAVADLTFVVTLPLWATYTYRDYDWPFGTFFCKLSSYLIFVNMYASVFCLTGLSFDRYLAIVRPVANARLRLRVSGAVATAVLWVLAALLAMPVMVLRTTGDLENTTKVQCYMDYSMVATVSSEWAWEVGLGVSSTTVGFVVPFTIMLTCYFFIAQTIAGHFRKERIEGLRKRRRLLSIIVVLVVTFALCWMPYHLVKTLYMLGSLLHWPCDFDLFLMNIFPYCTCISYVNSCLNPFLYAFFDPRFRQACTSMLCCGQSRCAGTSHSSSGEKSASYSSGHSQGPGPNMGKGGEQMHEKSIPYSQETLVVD
Test: in vitro apelin agonist activity (methods of Giddings et al., Apelin-13 as positive control)
Type: cell-based
Conditions: not given
From the text: The compounds above were studied for their in vitro activity as apelin agonists using the methods described by Giddings et al. Giddings et al., 2010 Int J High Thro Screen. 1:39-47, the contents of which are hereby incorporated by reference in its entirety.

| SMILES | EC50 |
| --- | --- |
| COc1cccc(OC)c1-c1cc(C(=O)N[C@H](C(=O)O)C2CCCCC2)nn1CC(C)C [compound 169, (S)-2-Cyclohexyl-2-(5-(2,6-dimethoxyphenyl)-1-isobutyl-1H-pyrazole-3-carboxamido)acetic acid] | < 10 µM |

Same assay, conditions: apelin agonist activity, Giddings et al. method; read-out: agonist activity (EC50)

| SMILES | EC50 |
| --- | --- |
| COc1cccc(OC)c1-c1cc(C(=O)N[C@H](CC(=O)NCC2CCCCC2)CC(C)C)nn1CC(C)C [compound 155, (S)—N-(1-((Cyclohexylmethyl)amino)-5-methyl-1-oxohexan-3-yl)-5-(2,6-dimethoxyphenyl)-1-isobutyl-1H-pyrazole-3-carboxamide] | < 10 µM |
| CCCCCNC(=O)C[C@H](CC(C)C)NC(=O)c1cc(-c2c(OC)cccc2OC)n(CC(C)C)n1 [compound 156, (S)-5-(2,6-Dimethoxyphenyl)-1-isobutyl-N-(5-methyl-1-oxo-1-(pentylamino)hexan-3-yl)-1H-pyrazole-3-carboxamide] | < 10 µM |
| CCCNC(=O)C[C@H](CC(C)C)NC(=O)c1cc(-c2c(OC)cccc2OC)n(CC(C)C)n1 [compound 157, (S)-5-(2,6-dimethoxyphenyl)-1-isobutyl-N-(5-methyl-1-oxo-1-(propylamino)hexan-3-yl)-1H-pyrazole-3-carboxamide] | < 10 µM |
| CCNC(=O)C[C@H](CC(C)C)NC(=O)c1cc(-c2c(OC)cccc2OC)n(CC(C)C)n1 [compound 161, (S)-5-(2,6-Dimethoxyphenyl)-N-(1-(ethylamino)-5-methyl-1-oxohexan-3-yl)-1-isobutyl-1H-pyrazole-3-carboxamide] | < 10 µM |
| COc1cccc(OC)c1-c1cc(C(=O)N[C@H](CC(=O)NC(C)C)CC(C)C)nn1CC(C)C [compound 162] | < 10 µM |
| COc1cccc(OC)c1-c1cc(C(=O)N[C@H](CC(=O)Nc2ccc(F)cc2)CC(C)C)nn1CC(C)C [compound 163, (S)-5-(2,6-Dimethoxyphenyl)-N-(1-((4-fluorophenyl)amino)-5-methyl-1-oxohexan-3-yl)-1-isobutyl-1H-pyrazole-3-carboxamide] | < 10 µM |
| COC(=O)C[C@H](CC(C)C)NC(=O)c1cc(-c2c(OC)cccc2OC)n(CC(C)C)n1 [compound 164] | < 10 µM |
| COc1c(F)cc(F)c(OC)c1-c1cc(C(=O)N[C@H](CC(=O)O)CC(C)C)nn1CC(C)C [compound 167] | < 10 µM |
| CCCCNC(=O)C[C@H](CC(C)C)NC(=O)c1cc(-c2c(OC)c(F)cc(F)c2OC)n(CC(C)C)n1 [compound 168] | < 10 µM |
| CCCN(C)C(=O)C[C@H](CC(C)C)NC(=O)c1cc(-c2c(OC)cccc2OC)n(CC(C)C)n1 [compound 171] | < 10 µM |
| COc1cccc(OC)c1-c1cc(C(=O)N[C@H](CC(=O)NC2CC2)CC(C)C)nn1CC(C)C [compound 172] | < 10 µM |
| COc1cccc(OC)c1-c1cc(C(=O)N[C@H](CC(=O)NCC(=O)O)CC(C)C)nn1CC(C)C [compound 174] | < 10 µM |
| COc1cccc(OC)c1-c1cc(C(=O)N[C@H](CC(=O)NCC(N)=O)CC(C)C)nn1CC(C)C [compound 175] | < 10 µM |
| CNC(=O)CNC(=O)C[C@H](CC(C)C)NC(=O)c1cc(-c2c(OC)cccc2OC)n(CC(C)C)n1 [compound 176] | < 10 µM |
| COc1cccc(OC)c1-c1cc(C(=O)N[C@H](CC(=O)O)CC(C)C)nn1CC1CC1 [compound 181] | < 10 µM |
| COc1cccc(OC)c1-c1cc(C(=O)N[C@H](CC(=O)O)CC(C)C)nn1C1CCCC1 [compound 182] | < 10 µM |
| COC(=O)CNC(=O)C[C@H](CC(C)C)NC(=O)c1cc(-c2c(OC)cccc2OC)n(CC2CC2)n1 [compound 183] | < 10 µM |
| COC(=O)CNC(=O)C[C@H](CC(C)C)NC(=O)c1cc(-c2c(OC)cccc2OC)n(C2CCCC2)n1 [compound 184] | < 10 µM |
| COc1cccc(OC)c1-c1cc(C(=O)N[C@H](CC(=O)NC2CCCC2)CC(C)C)nn1CC(C)C [compound 185] | < 10 µM |
| CCCn1nc(C(=O)N[C@H](CC(=O)NCC(=O)OC)CC(C)C)cc1-c1c(OC)cccc1OC [compound 186] | < 10 µM |
| COC(=O)CNC(=O)C[C@H](CC(C)C)NC(=O)c1cc(-c2c(OC)cccc2OC)n(CC(C)(C)C)n1 [compound 187] | < 10 µM |
